According to ChEMBL document CHEMBL1157539, “Thousands of chemical starting points for antimalarial lead identification” (Nature, 2010):

tested on: Plasmodium falciparum; experiment: GSK_TCMDC: Inhibition of Plasmodium falciparum 3D7 in whole erythrocytes, using parasite LDH activity as an index of growth.; assay type: functional, organism-based; settings: Plasmodium falciparum, 3D7

Q: With `Nc1nc2c(cnn2CCCCCCCP(=O)(O)O)c(=O)[nH]1` as the compound, how does the XC50 read?
A: The XC50 was 469 nM.

Q: With `CCN(CC)CCN(Cc1ccc(-c2ccc(C(F)(F)F)s2)cc1)C(=O)Cn1c(CCc2cccc(F)c2F)nc(=O)c2ccccc21` as the compound, how does the XC50 read?
A: The XC50 was 994 nM.

Q: Which XC50 does the source give for `CCN(CC)CCN(Cc1ccc(-c2ccc(C(F)(F)F)cc2)cc1)C(=O)Cn1c(CCc2ccc(F)c(C#N)c2)nc(=O)c2ccccc21` here?
A: Its XC50 is 769 nM.

Q: How did the XC50 turn out when `CC(C)CNCc1cccc(-c2ccc(CN(C(=O)NC3CCCCC3)C3CCN(Cc4ccccc4)CC3)cc2)c1` was run?
A: The XC50 was 763 nM.

Q: `C=CCc1cc(Br)ccc1OCCCOc1c(C)nc(N)nc1N` was tested. Which XC50 did it give?
A: The XC50 was 3.2 nM.

Q: `N=C(/N=C(/NCCCCCCN/C(=N/C(=N)NCc1ccc(Cl)c(Cl)c1)N1CCCCC1)N1CCCCC1)NCc1ccc(Cl)c(Cl)c1` was tested. Which XC50 did it give?
A: The XC50 was 567 nM.

Q: For `Nc1ncc(OC2CCCCC2)c(N)n1`, which XC50 is on record?
A: The XC50 was 1070 nM.

Q: `COCCNCc1cccc(-c2ccccc2CN(C(=O)Nc2ccccc2)C2CCN(Cc3ccccc3)CC2)c1` was tested. Which XC50 did it give?
A: Its XC50 is 914 nM.

Q: For `COc1cccc(C2C(C(=O)Nc3ccccc3)=C(C)N=c3sc(=Cc4ccc(O)cc4)c(=O)n32)c1` (configuration not stated), which XC50 is on record?
A: The XC50 was 579 nM.

Q: With `Nc1ccc2[nH]cc(C3CCN(CC4CCN(C(=O)/C=C/c5ccc(Cl)c(Cl)c5)CC4)CC3)c2n1` as the compound, how does the XC50 read?
A: Its XC50 is 701 nM.

Q: With `COc1cc(C2=NN(S(=O)(=O)c3c(C)cc(C)cc3C)CCCC2)ccc1Cl` as the compound, how does the XC50 read?
A: Its XC50 is 775 nM.

Q: Which XC50 does the source give for `Cn1nccc1C(=O)NCCNCc1cccc(-c2cccc(-c3nc4cc(F)ccc4[nH]3)c2)c1` here?
A: Its XC50 is 261 nM.

Q: `COc1ccc2ncc(F)c(NC(=O)C3CCC(NCc4cc5c(F)cccc5[nH]4)CC3)c2n1` (configuration not stated) was tested. Which XC50 did it give?
A: The XC50 was 1090 nM.

Q: `COc1cc2[nH]c(-c3ccc(O)cc3)c(C)c(=O)c2c(OC)c1OC` was tested. Which XC50 did it give?
A: The XC50 was 717 nM.

Q: `CC(=O)Nc1ncc(C(=O)Nc2cccc(-c3cccc(-c4nc5cc(C(F)(F)F)ccc5[nH]4)c3)c2)s1` was tested. Which XC50 did it give?
A: Its XC50 is 185 nM.

Q: For `O=C(CCc1c[nH]cn1)Nc1cccc(-c2ccc(-c3nc4cc(F)ccc4[nH]3)cc2)c1`, which XC50 is on record?
A: The XC50 was 244 nM.

Q: `CN1CCC(Oc2ccc(CN3CC[C@H](NC(=O)c4ccc(Cl)c(Cl)c4)C3)cc2Cl)C1` (some centres not stated) was tested. Which XC50 did it give?
A: Its XC50 is 882 nM.

Q: Which XC50 does the source give for `CC1(C)N=C(N)N=C(Nc2ccc(F)c(F)c2)N1` here?
A: Its XC50 is 52.5 nM.

Q: Which XC50 does the source give for `C=CCOC(=O)N1CCC(CNCc2ccc(-c3cccc(-c4nc5ccccc5[nH]4)c3)cc2)C1` (configuration not stated) here?
A: The XC50 was 255 nM.

Q: How did the XC50 turn out when `C[C@H]1CN(Cc2cccc(-c3cc(CNC(=O)c4cccc(CN5CCN(CCOc6ccccc6)CC5)c4)ccc3F)c2)CCN1` was run?
A: Its XC50 is 1110 nM.

Q: `CC(=O)Nc1ccc(CN(Cc2ccc(F)cc2)Cc2cccc(Oc3ccccc3)c2)cc1` was tested. Which XC50 did it give?
A: Its XC50 is 943 nM.

Q: How did the XC50 turn out when `O=C(Nc1ccccc1C(F)(F)F)Nc1nn(Cc2c(F)cccc2Cl)cc1Br` was run?
A: Its XC50 is 337 nM.

Q: `CC(C)C[C@@H](CNC[C@H](CC(C)C)NC(=O)OC(C)(C)C)NC(=O)OC(C)(C)C` was tested. Which XC50 did it give?
A: Its XC50 is 1250 nM.

Q: With `O=C(Cc1c[nH]cn1)Nc1cccc(-c2ccc(-c3nc4cc(F)ccc4[nH]3)s2)c1` as the compound, how does the XC50 read?
A: Its XC50 is 660 nM.

Q: How did the XC50 turn out when `CCOc1cc(Cc2cnc(N)nc2N)cc(OCC)c1OCCCCC(=O)OC` was run?
A: The XC50 was 44.8 nM.

Q: For `CN1CCN(CCCN(Cc2ccc(-c3cccc(CNCc4ccc5c(c4)OCO5)c3)cc2)C(=O)CCC2CCCC2)CC1`, which XC50 is on record?
A: Its XC50 is 1010 nM.

Q: With `COc1ccc2ncc(F)c(CCN3C[C@H](CNCc4cc(F)c5c(c4)NC(=O)CO5)[C@H](O)C3)c2n1` as the compound, how does the XC50 read?
A: The XC50 was 667 nM.

Q: For `COc1ccc(O)c(Cc2cnc3nc(N)nc(N)c3c2C)c1`, which XC50 is on record?
A: Its XC50 is 36.8 nM.

Q: How did the XC50 turn out when `CC(=O)Nc1ccc2[nH]cc(C3CCN(CC4CCC(NC(=O)/C=C/c5ccc(Cl)c(Cl)c5)CC4)CC3)c2n1` (configuration not stated) was run?
A: The XC50 was 263 nM.

Q: With `COc1ccc(CNC(=O)Nc2cc3cc(-c4ccc(CN(C)C)cc4)ccc3n3c(C)nnc23)cc1` as the compound, how does the XC50 read?
A: The XC50 was 852 nM.

Q: How did the XC50 turn out when `CCOC(=O)CN(c1ccc(Br)cc1OCCOc1cc(Br)ccc1N(CC(=O)OCC)C(C)C(=O)OCC)C(C)C(=O)OCC` (configuration not stated) was run?
A: Its XC50 is 806 nM.

Q: Which XC50 does the source give for `OCCOCCNCc1cccc(C#Cc2cc3ncnc(Nc4ccc(OCc5cccc(F)c5)c(Cl)c4)c3s2)n1` here?
A: Its XC50 is 781 nM.

Q: With `N=c1c(C(=O)NCc2ccccc2)cc2c(=O)n3ccccc3nc2n1CCc1ccccc1` as the compound, how does the XC50 read?
A: The XC50 was 535 nM.

Q: How did the XC50 turn out when `Cc1cc(=NN=Cc2ccccc2F)c2cccc(C)c2[nH]1` was run?
A: Its XC50 is 764 nM.

Q: With `CCCc1ccc(S(=O)(=O)Nc2ccc3c(c2)CCC3)cc1` as the compound, how does the XC50 read?
A: Its XC50 is 879 nM.

Q: With `O=C(NCc1cccc(CN2CCOCC2)c1)c1cc(Br)cc(N2CCN(c3ccncc3)CC2)c1` as the compound, how does the XC50 read?
A: Its XC50 is 858 nM.

Q: How did the XC50 turn out when `COc1c(C2CCN(CCCCNC(=O)c3oc(-c4ccc(Cl)cc4)cc3CO)CC2)ccc2c1CCCC2` was run?
A: The XC50 was 367 nM.

Q: How did the XC50 turn out when `Cc1cccc2nc(C(=O)Nc3nc(CN4CCC(C)CC4)cs3)cn12` was run?
A: The XC50 was 758 nM.

Q: With `CC(C)=C(C(=O)OCc1ccccc1)N1C(=O)[C@@H](NC(c2ccccc2)(c2ccccc2)c2ccccc2)[C@H]1[S+]([O-])CC(=O)OC(C)(C)C` (some centres not stated) as the compound, how does the XC50 read?
A: The XC50 was 1020 nM.

Q: With `CN(C)C(=O)n1cnc(S(=O)(=O)N(C)c2ccc(Cl)cc2)n1` as the compound, how does the XC50 read?
A: The XC50 was 767 nM.

Q: How did the XC50 turn out when `CCc1ccc(C(=O)NC(=O)c2ccccc2O)cc1` was run?
A: Its XC50 is 610 nM.

Q: With `COc1cc(NC(=O)/C=C/c2ccccc2OC(F)(F)F)cc(OCCN2CCN(CCN3CCOCC3)CC2)c1` as the compound, how does the XC50 read?
A: Its XC50 is 157 nM.

Q: With `O=C(NC1CC1)c1ccc(N2CCN(Cc3ccc(Cl)cc3)CC2)nc1` as the compound, how does the XC50 read?
A: The XC50 was 1340 nM.

Q: `O=C(Nc1ccc2c(c1)OCO2)c1cc(-c2cccnc2)nc2ccc(Cl)cc12` was tested. Which XC50 did it give?
A: Its XC50 is 524 nM.

Q: Which XC50 does the source give for `Cc1c(C)c2c(c(C)c1O)CC[C@@](C)(C(=O)N1CCC(CN3CCC(c4c[nH]c5ccccc45)CC3)CC1)O2` here?
A: Its XC50 is 657 nM.

Q: Which XC50 does the source give for `FC(F)(F)c1cccc(CCNc2nccc(NCc3ccccc3Cl)n2)c1` here?
A: The XC50 was 1170 nM.

Q: Which XC50 does the source give for `CN1CCCC1CCNCc1ccc(-c2ccc(CNCCc3ccccc3)cn2)cc1` (configuration not stated) here?
A: The XC50 was 1110 nM.

Q: With `CN(C(=O)/C=C/c1c(Cl)cccc1Cl)C1CCN(CCCCCNC(=O)/C=C/c2ccc(Cl)c(Cl)c2)CC1` as the compound, how does the XC50 read?
A: The XC50 was 360 nM.

Q: For `COc1cccc(C(=O)NCc2cccs2)c1Oc1ccccc1`, which XC50 is on record?
A: Its XC50 is 63.5 nM.

Q: How did the XC50 turn out when `Cc1cc(N2CC=CCC2)nc(NC(=N)Nc2ccc(Cl)cc2)n1` was run?
A: Its XC50 is 782 nM.

Q: Which XC50 does the source give for `N=C(N)CCN(Cc1ccccc1)c1ccc(Cl)cc1` here?
A: The XC50 was 257 nM.

Q: For `CCCCCN1CCC(CNS(=O)(=O)c2ccc(C(=O)Nc3cccc(C(F)(F)F)c3)cc2)CC1`, which XC50 is on record?
A: The XC50 was 747 nM.

Q: How did the XC50 turn out when `CC(C)N1CCN(C(=O)c2ccc(CNCCCN3CCN(c4ccccc4C(F)(F)F)CC3)s2)CC1` was run?
A: The XC50 was 837 nM.

Q: How did the XC50 turn out when `Cc1cccc(-c2nc3cc(NC(=O)c4ccc([N+](=O)[O-])o4)ccc3o2)c1` was run?
A: Its XC50 is 876 nM.

Q: Which XC50 does the source give for `Oc1cc(Nc2ccnc3ccc(I)cc23)c(F)cc1Cl` here?
A: Its XC50 is 1230 nM.

Q: Which XC50 does the source give for `Nc1cccc(CNCc2ccc(-c3cccc(-c4nc5cc(C(F)(F)F)ccc5[nH]4)c3)cc2)c1` here?
A: The XC50 was 172 nM.

Q: With `CCOC(=O)c1cc(=O)c2ccc(OCC#N)cc2o1` as the compound, how does the XC50 read?
A: The XC50 was 1030 nM.

Q: With `CN(C)S(=O)(=O)c1ccc(N2C(=O)C3C(C2=O)C2(c4ccccc4)C(=O)C3(c3ccccc3)C(c3ccccc3)=C2c2ccccc2)cc1` (configuration not stated) as the compound, how does the XC50 read?
A: Its XC50 is 951 nM.

Q: `Cc1ccc(CON2C(N)=NC(N)=NC2(C)C)c(Cl)c1.Cc1ccc(CON2C(N)=NC(N)=NC2(C)C)cc1Cl` was tested. Which XC50 did it give?
A: Its XC50 is 3.2 nM.

Q: How did the XC50 turn out when `CCOC(=O)C(C)(C)Oc1ccc(CN(Cc2ccc(CC(C)C)cc2)C(=O)Nc2ccc(F)cc2F)c(OC)c1` was run?
A: Its XC50 is 238 nM.

Q: For `Cc1cccc(C(=O)Nc2ccnc(N(C)C3CCN(Cc4cccc(O)c4)CC3)c2)c1`, which XC50 is on record?
A: The XC50 was 944 nM.

Q: `O=C(Nc1ccc(C2=NC3CCCCC3N2)cc1)Nc1ccc(C2=NC3CCCCC3N2)cc1` (configuration not stated) was tested. Which XC50 did it give?
A: The XC50 was 179 nM.

Q: For `CCCC(=O)c1cnc2c(Oc3cc(Cl)ncn3)cccc2c1Nc1ccccc1C`, which XC50 is on record?
A: Its XC50 is 336 nM.

Q: `Cc1nn(-c2ccccc2)c2nc(-c3ccccc3)cc(C(=O)N3CCOCC3)c12` was tested. Which XC50 did it give?
A: Its XC50 is 872 nM.

Q: With `CCN(CC)CCN(Cc1ccc(-c2ccc(C(F)(F)F)cc2)cc1)C(=O)Cn1c(CCc2cccc(F)c2F)cc(=O)cc1-c1ccccc1` as the compound, how does the XC50 read?
A: The XC50 was 778 nM.

Q: For `O=C(Nc1ccc(S(=O)(=O)N2CCOCC2)cc1)c1cc(-c2cc(Cl)ccc2O)n[nH]1`, which XC50 is on record?
A: Its XC50 is 770 nM.

Q: With `N#Cc1ccc2c(c1)CCN(CCC1CCC(NC(=O)c3cc4ccccc4[nH]3)CC1)CC2` (configuration not stated) as the compound, how does the XC50 read?
A: Its XC50 is 1010 nM.
